Data reported in PubChem BioAssay AID1259411 (Chemical Carcinogenesis Research Information System (CCRIS), 2018).
Active and inactive are the calls of the source. The rule behind the calls is not given here.

Tested on: rodent carcinogenicity bioassays, tumor incidence
Assay: CCRIS carcinogenicity studies
In short: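 NCI-built, expert-reviewed records of carcinogenicity and related test outcomes (mutagenicity, tumor promotion/inhibition) compiled from published and report sources, historical span 1985-2011, not updated.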

In the case of C=C1C/C(=C/C)C(=O)O[C@@H]2CCN3CC=C(COC(=O)[C@@]1(O)CO)[C@H]23, the carcinogen call (Species: MOUSE, Strain/Sex: B6C3F1/FEMALE, Route: GAVAGE, Dose: 0, 3 MG/KG IN 0.1 M PHOSPHATE BUFFER 5 D/WK FOR 105 WK (STUDY DURATION: 105 WK), Tumor Site: Type of Lesion: LUNG (ALVEOLAR/BRONCHIOLAR): ADENOMA, ADENOMA OR CARCINOMA) is reported as “active; positive”, the carcinogen call (Species: MOUSE, Strain/Sex: B6C3F1/MALE, Route: GAVAGE, Dose: 0, 0.1, 0.3, 1, 3 MG/KG IN 0.1 M PHOSPHATE BUFFER 5 D/WK FOR 105 WK (STUDY DURATION: 105 WK), Dose: 0, 0.1, 0.3, 1, 3 MG/KG IN 0.1 M PHOSPHATE BUFFER 5 D/WK FOR 105 WK (STUDY DURATION: 105 WK), Tumor Site: Type of Lesion: LIVER: HEMANGIOSARCOMA) is reported as “active; positive” and the carcinogen call (Species: RAT, Strain/Sex: F344/FEMALE, Route: GAVAGE, Dose: 0, 0.01, 0.033, 0.1, 0.33 MG/KG IN 0.1 M PHOSPHATE BUFFER 5 D/WK FOR 105 WK (STUDY DURATION: 105 WK), Dose: 0, 0.01, 0.033, 0.1, 0.33 MG/KG IN 0.1 M PHOSPHATE BUFFER 5 D/WK FOR 105 WK (STUDY DURATION: 105 WK)) is reported as “inactive; negative”. For the same compound, the carcinogen call (Species: RAT, Strain/Sex: F344/FEMALE, Route: GAVAGE, Dose: 0, 1 MG/KG IN 0.1 M PHOSPHATE BUFFER 5 D/WK FOR 97 WK (STUDY DURATION: 97 WK), Tumor Site: Type of Lesion: LIVER: HEMANGIOSARCOMA, HEPATOCELLULAR ADENOMA, ADENOMA OR CARCINOMA, HEMATOPOIETIC SYSTEM: MONONUCLEAR CELL LEUKEMIA) was “active; positive” and the carcinogen call (Species: RAT, Strain/Sex: F344/MALE, Route: GAVAGE, Dose: 0, 1 MG/KG IN 0.1 M PHOSPHATE BUFFER 5 D/WK FOR 72 WK (STUDY DURATION: 72 WK), Tumor Site: Type of Lesion: LIVER: HEMANGIOSARCOMA, HEPATOCELLULAR ADENOMA, HEMATOPOIETIC SYSTEM: MONONUCLEAR CELL LEUKEMIA) was “active; positive”.
CC1=CC(O)=NS(=O)(=O)O1 was tested, and the carcinogen call (Species: MOUSE, Strain/Sex: SWISS/FEMALE, Route: ORAL, Dose: 0, 3000, 10000, 30000 PPM IN DIET FOR 80 WK (STUDY DURATION: 80 WK), Dose: 0, 3000, 10000, 30000 PPM IN DIET FOR 80 WK (STUDY DURATION: 80 WK)) was “inactive; negative”, the carcinogen call (Species: MOUSE, Strain/Sex: SWISS/MALE, Route: ORAL, Dose: 0, 3000, 10000, 30000 PPM IN DIET FOR 80 WK (STUDY DURATION: 80 WK), Dose: 0, 3000, 10000, 30000 PPM IN DIET FOR 80 WK (STUDY DURATION: 80 WK)) was “inactive; negative” and the carcinogen call (Species: RAT, Strain/Sex: CPB-WK SPF/FEMALE, Route: ORAL, Dose: 0, 3000, 10000, 30000 PPM IN DIET FOR 113 WK (STUDY DURATION: 113 WK), Dose: 0, 3000, 10000, 30000 PPM IN DIET FOR 113 WK (STUDY DURATION: 113 WK)) was “inactive; negative”. For the same compound, the carcinogen call (Species: RAT, Strain/Sex: CPB-WK SPF/MALE, Route: ORAL, Dose: 0, 3000, 10000, 30000 PPM IN DIET FOR 120 WK (STUDY DURATION: 120 WK), Dose: 0, 3000, 10000, 30000 PPM IN DIET FOR 120 WK (STUDY DURATION: 120 WK)) was “inactive; negative”.
For O=C1OC2(c3ccc(O)cc3Oc3cc(O)ccc32)c2ccccc21, the carcinogen call (Species: MOUSE, Strain/Sex: SWISS-WEBSTER/FEMALE, Route: DERMAL, Dose: 0, 1% IN 0.1 ML 0.1% SODIUM LAURYL SULFATE 1/WK FOR 18 MO (STUDY DURATION: 18 MO)) was “inactive; negative” and the carcinogen call (Species: MOUSE, Strain/Sex: SWISS-WEBSTER/MALE, Route: DERMAL, Dose: 0, 1% IN 0.1 ML 0.1% SODIUM LAURYL SULFATE 1/WK FOR 18 MO (STUDY DURATION: 18 MO)) was “inactive; negative”.
In the case of O=[N+]([O-])c1cccc2ccccc12, the carcinogen call (Species: MOUSE, Strain/Sex: B6C3F1/FEMALE, Route: ORAL, Dose: 0, 0.06, 0.12% OF DIET, Dose: 0, 0.06, 0.12% OF DIET) is reported as “inactive; negative”, the carcinogen call (Species: MOUSE, Strain/Sex: B6C3F1/MALE, Route: ORAL, Dose: 0, 0.06, 0.12% OF DIET, Dose: 0, 0.06, 0.12% OF DIET) is reported as “inactive; negative” and the carcinogen call (Species: RAT, Strain/Sex: F344/FEMALE, Route: ORAL, Dose: 0, 0.06, 0.18% OF DIET, Dose: 0, 0.06, 0.18% OF DIET) is reported as “inactive; negative”. The carcinogen call (Species: RAT, Strain/Sex: F344/MALE, Route: ORAL, Dose: 0, 0.06, 0.18% OF DIET, Dose: 0, 0.06, 0.18% OF DIET) was “inactive; negative”.
In the case of [Cr], the carcinogen call (Species: HUMAN, Route: INHALATION, ORAL, Tumor Site: Type of Lesion: LUNG) is reported as “active; positive”.
In the case of c1cc(OCC2CO2)cc(OCC2CO2)c1 (stereo not given), the carcinogen call (Species: MOUSE, Strain/Sex: B6C3F1/FEMALE, Route: GAVAGE, Dose: 0, 50, 100 MG/KG BW IN CORN OIL 5 D/WK FOR 103 WK (STUDY DURATION: 105 WK), Dose: 0, 50, 100 MG/KG BW IN CORN OIL 5 D/WK FOR 103 WK (STUDY DURATION: 105 WK), Tumor Site: Type of Lesion: FORESTOMACH: SQUAMOUS CELL CARCINOMA, SQUAMOUS CELL PAPILLOMA) is reported as “active; positive”, the carcinogen call (Species: MOUSE, Strain/Sex: B6C3F1/FEMALE, Route: GAVAGE, Dose: 0, 50, 100 MG/KG IN CORN OIL 5 D/WK FOR 103 WK (STUDY DURATION: 104-105 WK), Dose: 0, 50, 100 MG/KG IN CORN OIL 5 D/WK FOR 103 WK (STUDY DURATION: 104-105 WK), Tumor Site: Type of Lesion: FORESTOMACH: SQUAMOUS CELL PAPILLOMA, SQUAMOUS CELL CARCINOMA) is reported as “active; positive” and the carcinogen call (Species: MOUSE, Strain/Sex: B6C3F1/MALE, Route: GAVAGE, Dose: 0, 50, 100 MG/KG BW IN CORN OIL 5 D/WK FOR 103 WK (STUDY DURATION: 105 WK), Dose: 0, 50, 100 MG/KG BW IN CORN OIL 5 D/WK FOR 103 WK (STUDY DURATION: 105 WK), Tumor Site: Type of Lesion: FORESTOMACH: SQUAMOUS CELL CARCINOMA, SQUAMOUS CELL PAPILLOMA) is reported as “active; positive”. The carcinogen call (Species: MOUSE, Strain/Sex: B6C3F1/MALE, Route: GAVAGE, Dose: 0, 50, 100 MG/KG IN CORN OIL 5 D/WK FOR 103 WK (STUDY DURATION: 104-105 WK), Dose: 0, 50, 100 MG/KG IN CORN OIL 5 D/WK FOR 103 WK (STUDY DURATION: 104-105 WK), Tumor Site: Type of Lesion: FORESTOMACH: SQUAMOUS CELL PAPILLOMA, SQUAMOUS CELL CARCINOMA) was “active; positive”, the carcinogen call (Species: RAT, Strain/Sex: F344/FEMALE, Route: GAVAGE, Dose: 0, 12, 25, 50 MG/KG BW IN CORN OIL 5 D/WK FOR 103 WK (STUDY DURATION: 105 WK), Dose: 0, 12, 25, 50 MG/KG BW IN CORN OIL 5 D/WK FOR 103 WK (STUDY DURATION: 105 WK), Tumor Site: Type of Lesion: FORESTOMACH: SQUAMOUS CELL CARCINOMA, SQUAMOUS CELL PAPILLOMA) was “active; positive” and the carcinogen call (Species: RAT, Strain/Sex: F344/FEMALE, Route: GAVAGE, Dose: 0, 12, 25, 50 MG/KG IN CORN OIL 5 D/WK FOR 103 WK (STUDY DURATION: 104-105 WK), Dose: 0, 12, 25, 50 MG/KG IN CORN OIL 5 D/WK FOR 103 WK (STUDY DURATION: 104-105 WK), Tumor Site: Type of Lesion: FORESTOMACH: SQUAMOUS CELL PAPILLOMA, SQUAMOUS CELL CARCINOMA) was “active; positive”. The carcinogen call (Species: RAT, Strain/Sex: F344/MALE, Route: GAVAGE, Dose: 0, 12, 25, 50 MG/KG IN CORN OIL 5 D/WK FOR 103 WK (STUDY DURATION: 104-105 WK), Dose: 0, 12, 25, 50 MG/KG IN CORN OIL 5 D/WK FOR 103 WK (STUDY DURATION: 104-105 WK), Tumor Site: Type of Lesion: FORESTOMACH: SQUAMOUS CELL PAPILLOMA, SQUAMOUS CELL CARCINOMA) was “active; positive” and the carcinogen call (Species: RAT, Strain/Sex: F344/MALE, Route: GAVAGE, Dose: 0, 12, 25, 50 MG/KG IN CORN OIL 5 D/WK FOR 103 WK (STUDY DURATION: 105 WK), Dose: 0, 12, 25, 50 MG/KG IN CORN OIL 5 D/WK FOR 103 WK (STUDY DURATION: 105 WK), Tumor Site: Type of Lesion: FORESTOMACH: SQUAMOUS CELL CARCINOMA, SQUAMOUS CELL PAPILLOMA) was “active; positive”.
Cc1cccc(C)c1NC1=NCCCS1 was tested, and the carcinogen call (Species: RAT, Strain/Sex: F344/MALE, Route: ORAL, Dose: 0, 1,000 PPM IN FEED FOR 52 WK (STUDY DURATION: 52 WK), Tumor Site: Type of Lesion: THYROID: ADENOMA) was “active; positive”.
